Measurements taken from the NIST ThermoML archive (doi:10.1016/j.fluid.2014.04.018).

Settings: Liquid, Vibrating tube method

CCCCOC(=O)CCCCC(=O)OCCCC [dibutyl hexanedioate]
Settings	mass density [kg/m3]
293.15 K, 100 kPa	960.6
293.15 K, 2510 kPa	962.2
293.15 K, 4990 kPa	963.7
293.15 K, 5000 kPa	963.7
293.15 K, 7510 kPa	965.3
293.15 K, 9990 kPa	966.9
293.15 K, 10000 kPa	966.9
293.15 K, 15010 kPa	969.9
293.15 K, 20000 kPa	972.9
293.15 K, 29990 kPa	978.6
293.15 K, 39800 kPa	983.9
293.15 K, 39860 kPa	983.8
293.15 K, 50020 kPa	989.1
293.15 K, 68080 kPa	997.3
293.15 K, 68090 kPa	997.7
313.15 K, 100 kPa	943.7
313.15 K, 2500 kPa	945.4
313.15 K, 5020 kPa	947.2
313.15 K, 7510 kPa	948.9
313.15 K, 9990 kPa	950.5
313.15 K, 15000 kPa	953.9
313.15 K, 20000 kPa	957.1
313.15 K, 30010 kPa	963.3
313.15 K, 39810 kPa	969
313.15 K, 50000 kPa	974.6
313.15 K, 67990 kPa	983.8
333.15 K, 100 kPa	926.8
333.15 K, 2500 kPa	928.7
333.15 K, 5010 kPa	930.6
333.15 K, 7520 kPa	932.5
333.15 K, 10010 kPa	934.3
333.15 K, 15040 kPa	938
333.15 K, 20000 kPa	941.4
333.15 K, 30030 kPa	948.2
333.15 K, 39800 kPa	954.3
333.15 K, 50030 kPa	960.4
333.15 K, 68030 kPa	970.2
353.15 K, 100 kPa	909.9
353.15 K, 2510 kPa	912
353.15 K, 5000 kPa	914.1
353.15 K, 7530 kPa	916.2
353.15 K, 10010 kPa	918.2
353.15 K, 15000 kPa	922.2
353.15 K, 20000 kPa	926
353.15 K, 30010 kPa	933.3
353.15 K, 39840 kPa	939.9
353.15 K, 49990 kPa	946.4
353.15 K, 67990 kPa	956.9
373.15 K, 100 kPa	893
373.15 K, 2490 kPa	895.3
373.15 K, 2500 kPa	895.3
373.15 K, 5020 kPa	897.6
373.15 K, 7510 kPa	899.9
373.15 K, 10010 kPa	902.1
373.15 K, 15010 kPa	906.5
373.15 K, 19980 kPa	910.6
373.15 K, 30010 kPa	918.5
373.15 K, 39810 kPa	925.7
373.15 K, 50000 kPa	932.6
373.15 K, 68010 kPa	943.8
